Measurements from patent US20230038646A1, “NOVEL AND POTENT JAK/STAT INHIBITOR” (Texas Tech University System, priority 2020, published 2023).

Experiments:
Janus Kinase 2 (JAK2) = experiment: Western blotting of JAK2 in treated brain cancer cells; format: cell-based; details: Daoy, IMR32, KNS42, 0, 10, 15 and 20 µM, 48 hours
Description: Daoy, IMR32, and KNS42 cells were treated with 0, 10, 15 and 20 µM moxidectin for 48 hours and evaluated by western blotting.
(§1) Moxidectin inhibits JAK-STAT signaling. In order to delineate the mechanism by which moxidectin mediates its anti-cancer effects in brain cancer cell lines, Daoy, IMR32, and KNS42 cells were treated with 0, 10, 15 and 20 µM moxidectin for 48 hours and evaluated by western blotting. […] It has been reported that, upon activation (phosphorylation) JAK2 activates multiple downstream transcription factors one of which is STAT3. Hyper activation of STAT3 in cancer cells is strongly attributed to evasion of apoptosis and transcriptional activation of anti-apoptotic proteins such as Bcl-2 and c-myc.
(§2) It has been reported that, upon activation (phosphorylation) JAK2 activates multiple downstream transcription factors one of which is STAT3. Hyperactivation of STAT3 in cancer cells is strongly attributed to evasion of apoptosis and transcriptional activation of anti-apoptotic proteins such as Bcl-2 and c-myc.

[1] = system: Daoy cells (medulloblastoma); experiment: Subcutaneously implanted Daoy tumor growth in mice; format: in vivo; details: subcutaneous Daoy
Description: (§3) Moxidectin suppresses the growth of subcutaneously implanted brain cancer cells. To evaluate the ability of moxidectin in inhibiting the growth of brain tumor cells in vivo, ~ 4 million Daoy cells were injected subcutaneously into the right flank of the mice. Once the tumor cells started growing and the tumor volume reached ~ 70 mm^3, mice were randomized into four groups. Control group received the vehicle whereas the treatment group received 2.5 mg/kg, 5 mg/kg and 10 mg/kg moxidectin once every day. The tumor readings were taken twice a week throughout the course of the experiment using Vernier caliper. […] Similarly, 2.5 mg/kg and 5 mg/kg moxidectin suppressed Daoy tumor growth by 45% and 60% respectively (FIG. 4B).
as §3, with “4C). […] In another experiment, ~0.3 million Daoy luc cells were injected intracranially in the brain of athymic nude mice. The mice were given 2.5 mg/kg for 33 days. Moxidectin was able to inhibit -65% of intracranially implanted medulloblastoma tumors. […] Additionally, ~ 3 million SK-N-AS neuroblastoma cells were injected subcutaneously in the right flank of the mice. Mice were randomized on day 10. Treatment group received 3.5 mg/kg moxidectin. The experiment was terminated on day 23. Moxidectin was able to inhibit 60% of subcutaneously implanted neuroblastoma tumors (FIG. 4D).” for “4B).”

[2] = system: Daoy, KNS42 and IMR32 brain cancer cells; experiment: Annexin V/FITC apoptosis assay (FIGS. 2A-2C); format: cell-based
Description: The percentage of apoptotic cells with 20 µM moxidectin treatment ranged from 90-100% in all the brain cancer cell lines tested (FIGS. 2A-2C).
Induction of apoptosis by moxidectin. The mode of cell death caused by moxidectin treatment was determined by Annexin V/FITC assay in Daoy, KNS42 and IMR32 brain cancer cells. […] 15 µM moxidectin induced -80% apoptosis in Daoy, KNS42 and IMR32 brain cancer cell lines. The percentage of apoptotic cells with 20 µM moxidectin treatment ranged from 90-100% in all the brain cancer cell lines tested (FIGS. 2A-2C). Induction of apoptosis by moxidectin treatment in these cell lines was further assessed by increase in the cleavage of caspase 3 and PARP (FIG. 3).

[3] = system: Daoy, UW228, ONS76, UW246, PFSK1 (medulloblastoma), IMR32, SF268, SF295 (glioblastoma), SK-N-AS (neuroblastoma) cells; experiment: Proliferation / survival of brain cancer cell line panel (FIGS. 5A-5I); format: cell-based
caspase 3 and PARP = experiment: Western blotting of caspase 3 and PARP cleavage in treated brain cancer cells; format: cell-based; details: Daoy, IMR32 and KNS42; 48 hours
Description: as §1
(§4) Moreover, moxidectin increased the cleavage of caspase 3 and PARP as an indication of apoptosis, a primary mode of cell death (FIG. 3).
(§5) Moreover, moxidectin increased the cleavage of caspase 3 and PARP as an indication of apoptosis, a primary mode of cell death (FIG. 7).

[4] = system: SK-N-AS neuroblastoma cells; experiment: Subcutaneously implanted SK-N-AS neuroblastoma tumors in mice; format: in vivo; details: 3.5 mg/kg; randomized day 10, terminated day 23
[5] = system: Daoy luc cells (medulloblastoma); experiment: Intracranially implanted Daoy luc tumors in mice; format: in vivo, athymic nude mice; details: 2.5 mg/kg for 33 days; intracranial Daoy luc
[6] = system: Daoy (medulloblastoma), IMR32 (neuroblastoma) and KNS42 (glioblastoma) cells; experiment: Proliferation / survival of brain cancer cells (FIGS. 1A-1C); format: cell-based
From the text: Moxidectin treatment suppresses the proliferation of brain cancer cells.

STAT3 = experiment: Western blotting of STAT3 phosphorylation in treated brain cancer cells; format: cell-based; details: Daoy, IMR32, KNS42; 0, 10, 15 and 20 µM, 48 hours
Description: as §1, §2

[7] = system: Daoy, UW228, ONS76, UW426, PFSK1 and IMR32 brain cancer cells; experiment: Annexin V/FITC apoptosis assay (FIGS. 6A-6F); format: cell-based
Description: (§6) The mode of cell death caused by moxidectin treatment was determined by Annexin V/FITC assay in Daoy, UW228, ONS76, UW426, PFSK1 and IMR32 brain cancer cells (FIGS. 6A-6F, resepectively). […] 15 µM moxidectin induced -80% apoptosis in Daoy and IMR32 brain cancer cell lines. The percentage of apoptotic cells with 20 µM moxidectin treatment ranged from 90-100% in all the brain cancer cell lines. Induction of apoptosis by moxidectin treatment in these cell lines was further assessed by increase in the cleavage of caspase 3 and PARP (FIG. 3).
as §6, with “FIGS. 6A-6F show the induction of apoptosis by moxidectin. The mode” for “The mode”, “PARP (FIG. 7).” for “PARP (FIG. 3).”

Bcl-2 = experiment: Western blotting of Bcl-2 expression in treated brain cancer cells; format: cell-based; details: Daoy, IMR32 and KNS42; 48 hours
Description: as §1, §4, §5

[8] = treatment for 48 hours, all brain cancer cells
[9] = varying concentrations, concentration and time-dependent

CO/N=C1\C[C@]2(C[C@@H]3C[C@@H](C/C=C(\C)C[C@@H](C)/C=C/C=C4\CO[C@@H]5[C@H](O)C(C)=C[C@@H](C(=O)O3)[C@]45O)O2)O[C@H](/C(C)=C/C(C)C)[C@H]1C [Moxidectin]
protein level of JAK2 (Janus Kinase 2 (JAK2)): remained unchanged | phosphorylation of JAK2 at Tyr1007/1008 (Janus Kinase 2 (JAK2); concentration-dependent): reduced | suppression of tumor growth ([1]; 2.5 mg/kg once every day): 45% | suppression of tumor growth ([1]; 5 mg/kg once every day): 60% | suppression of tumor growth ([1]; 10 mg/kg once every day): 90% | apoptotic effects ([2]; 10 µM, 48 hours, all three cell lines): minimal apoptotic effects | apoptosis induced ([2]; 15 µM, 48 hours, Daoy, KNS42 and IMR32): 80% | percentage of apoptotic cells ([2]; 20 µM, 48 hours, all cell lines tested): 90-100% | apoptosis [2, 8]: significant increase | IC50 ([3]; all brain cancer cell lines, 24, 48 and 72-hour time point): 9.7 to 30 µM | survival of cells [3, 9]: significant reduction | cleavage of caspase 3 and PARP (caspase 3 and PARP): increased | inhibition of subcutaneously implanted neuroblastoma tumors [4]: 60% | inhibition of intracranially implanted tumors [5]: 65% | IC50 ([6]; Daoy, IMR32 and KNS42, 24, 48 and 72-hour time point): 11 to 16 µM | survival of cells [6, 9]: significant reduction | phosphorylation of STAT3 at Tyr705 (STAT3): reduced | apoptotic effects ([7]; 10 µM, 48 hours, all cell lines tested): minimal apoptotic effects | apoptosis induced ([7]; 15 µM, 48 hours, Daoy and IMR32): 80% | percentage of apoptotic cells ([7]; 20 µM, 48 hours, all cell lines): 90-100% | apoptosis [7, 8]: significant increase | expression of anti-apoptotic protein Bcl-2 (Bcl-2): reduced
